Results taken from the supplement of paper PMC10307832.

Columns and labels:
Test in all cases: relative viability (nuclei count vs DMSO), 5 days (fraction); higher = more cells survive
Selisistat + Bortezomib = compound: C1CC(C2=C(C1)C3=C(N2)C=CC(=C3)Cl)C(=O)N [Selisistat] + CC(C)C[C@H](NC(=O)[C@H](Cc1ccccc1)NC(=O)c1cnccn1)B(O)O [Bortezomib] (partner 0.002 µM)
Method in brief: (§1)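 The day after seeding in 1536-well plates, lung cancer cell lines were treated by pin tool with a single drug, or with a fixed anchor-drug dose together with five library-drug doses (not always all listed) in √10 steps. After 5 days, a combined fix-and-stain solution (final 0.05% Triton X-100, 1% formaldehyde, 1 ug/ml Hoechst) was added. Nuclei counted on 4× images gave relative viability as treated counts over vehicle counts, reported as the median of duplicate plates.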

Selisistat + Vorinostat = compound: C1CC(C2=C(C1)C3=C(N2)C=CC(=C3)Cl)C(=O)N [Selisistat] + O=C(CCCCCCC(=O)Nc1ccccc1)NO [Vorinostat] (partner 1 µM)
Method in brief: as §1

Serdemetan + Phenformin = compound: c1ccc2c(CCNc3ccc(Nc4ccncc4)cc3)c[nH]c2c1 [Serdemetan] + N=C(N)NC(=N)NCCc1ccccc1 [Phenformin] (partner 250 µM)
Method in brief: as §1

Serdemetan + AZD7762 = compound: c1ccc2c(CCNc3ccc(Nc4ccncc4)cc3)c[nH]c2c1 [Serdemetan] + NC(=O)Nc1cc(-c2cccc(F)c2)sc1C(=O)N[C@H]1CCCNC1 [AZD7762] (partner 0.2 µM)
Method in brief: as §1

Cell Line: NCI-H650
- relative viability (Selisistat + Bortezomib; first compound 0.4 µM): 0.832
- relative viability (Selisistat + Bortezomib; first compound 4 µM): 0.868
- relative viability (Selisistat + Bortezomib; first compound 12.65 µM): 0.636
- relative viability (Selisistat + Bortezomib; first compound 40 µM): 1.08
- relative viability (Selisistat + Vorinostat; first compound 0.4 µM): 0.396
- relative viability (Selisistat + Vorinostat; first compound 1.265 µM): 0.438
- relative viability (Selisistat + Vorinostat; first compound 4 µM): 0.632
- relative viability (Selisistat + Vorinostat; first compound 12.65 µM): 0.481
- relative viability (Selisistat + Vorinostat; first compound 40 µM): 0.548
- relative viability (Serdemetan + Phenformin; first compound 0.04 µM): 0.417
- relative viability (Serdemetan + Phenformin; first compound 0.1265 µM): 0.44
- relative viability (Serdemetan + Phenformin; first compound 0.4 µM): 0.506
- relative viability (Serdemetan + Phenformin; first compound 1.265 µM): 0.403
- relative viability (Serdemetan + Phenformin; first compound 4 µM): 0.481
- relative viability (Serdemetan + AZD7762; first compound 0.04 µM): 0.854
- relative viability (Serdemetan + AZD7762; first compound 0.1265 µM): 0.977
- relative viability (Serdemetan + AZD7762; first compound 0.4 µM): 1.2
- relative viability (Serdemetan + AZD7762; first compound 1.265 µM): 1.02
- relative viability (Serdemetan + AZD7762; first compound 4 µM): 0.933

Cell Line: NCI-H1734
- relative viability (Selisistat + Bortezomib; first compound 0.4 µM): 0.902
- relative viability (Selisistat + Bortezomib; first compound 1.265 µM): 0.879
- relative viability (Selisistat + Bortezomib; first compound 4 µM): 0.946
- relative viability (Selisistat + Bortezomib; first compound 12.65 µM): 1.1
- relative viability (Selisistat + Bortezomib; first compound 40 µM): 0.869
- relative viability (Selisistat + Vorinostat; first compound 0.4 µM): 0.871
- relative viability (Selisistat + Vorinostat; first compound 1.265 µM): 0.68
- relative viability (Selisistat + Vorinostat; first compound 4 µM): 0.783
- relative viability (Selisistat + Vorinostat; first compound 12.65 µM): 0.843
- relative viability (Selisistat + Vorinostat; first compound 40 µM): 0.85
- relative viability (Serdemetan + Phenformin; first compound 0.04 µM): 0.303
- relative viability (Serdemetan + Phenformin; first compound 0.1265 µM): 0.318
- relative viability (Serdemetan + Phenformin; first compound 0.4 µM): 0.338
- relative viability (Serdemetan + Phenformin; first compound 1.265 µM): 0.156
- relative viability (Serdemetan + Phenformin; first compound 4 µM): 0.181
- relative viability (Serdemetan + AZD7762; first compound 0.04 µM): 0.375
- relative viability (Serdemetan + AZD7762; first compound 0.1265 µM): 0.268
- relative viability (Serdemetan + AZD7762; first compound 0.4 µM): 0.266
- relative viability (Serdemetan + AZD7762; first compound 1.265 µM): 0.104
- relative viability (Serdemetan + AZD7762; first compound 4 µM): 0.144

Cell Line: LXF-289
- relative viability (Selisistat + Bortezomib; first compound 0.4 µM): 1.02
- relative viability (Selisistat + Bortezomib; first compound 1.265 µM): 1.05
- relative viability (Selisistat + Bortezomib; first compound 4 µM): 0.832
- relative viability (Selisistat + Bortezomib; first compound 12.65 µM): 0.937
- relative viability (Selisistat + Bortezomib; first compound 40 µM): 0.984
- relative viability (Selisistat + Vorinostat; first compound 0.4 µM): 0.78
- relative viability (Selisistat + Vorinostat; first compound 1.265 µM): 0.83
- relative viability (Selisistat + Vorinostat; first compound 4 µM): 0.753
- relative viability (Selisistat + Vorinostat; first compound 12.65 µM): 0.799
- relative viability (Selisistat + Vorinostat; first compound 40 µM): 0.961
- relative viability (Serdemetan + Phenformin; first compound 0.04 µM): 0.483
- relative viability (Serdemetan + Phenformin; first compound 0.1265 µM): 0.522
- relative viability (Serdemetan + Phenformin; first compound 0.4 µM): 0.5
- relative viability (Serdemetan + Phenformin; first compound 1.265 µM): 0.457
- relative viability (Serdemetan + Phenformin; first compound 4 µM): 0.517
- relative viability (Serdemetan + AZD7762; first compound 0.04 µM): 1.07
- relative viability (Serdemetan + AZD7762; first compound 0.1265 µM): 1.11
- relative viability (Serdemetan + AZD7762; first compound 0.4 µM): 1.07
- relative viability (Serdemetan + AZD7762; first compound 1.265 µM): 0.982
- relative viability (Serdemetan + AZD7762; first compound 4 µM): 0.846

Cell Line: H3255
- relative viability (Selisistat + Bortezomib; first compound 0.4 µM): 0.811
- relative viability (Selisistat + Bortezomib; first compound 1.265 µM): 0.61
- relative viability (Selisistat + Bortezomib; first compound 4 µM): 0.536
- relative viability (Selisistat + Bortezomib; first compound 12.65 µM): 0.796
- relative viability (Selisistat + Bortezomib; first compound 40 µM): 0.883
- relative viability (Selisistat + Vorinostat; first compound 0.4 µM): 0.885
- relative viability (Selisistat + Vorinostat; first compound 1.265 µM): 0.93
- relative viability (Selisistat + Vorinostat; first compound 4 µM): 0.822
- relative viability (Selisistat + Vorinostat; first compound 12.65 µM): 0.834
- relative viability (Selisistat + Vorinostat; first compound 40 µM): 0.872
- relative viability (Serdemetan + Phenformin; first compound 0.04 µM): 0.348
- relative viability (Serdemetan + Phenformin; first compound 0.1265 µM): 0.387
- relative viability (Serdemetan + Phenformin; first compound 0.4 µM): 0.358
- relative viability (Serdemetan + Phenformin; first compound 1.265 µM): 0.351
- relative viability (Serdemetan + Phenformin; first compound 4 µM): 0.397
- relative viability (Serdemetan + AZD7762; first compound 0.04 µM): 0.826
- relative viability (Serdemetan + AZD7762; first compound 0.1265 µM): 0.601
- relative viability (Serdemetan + AZD7762; first compound 0.4 µM): 0.733
- relative viability (Serdemetan + AZD7762; first compound 1.265 µM): 0.832
- relative viability (Serdemetan + AZD7762; first compound 4 µM): 0.792

Cell Line: 201T
- relative viability (Selisistat + Bortezomib; first compound 0.4 µM): 1.13
- relative viability (Selisistat + Bortezomib; first compound 1.265 µM): 1.08
- relative viability (Selisistat + Bortezomib; first compound 4 µM): 1.1
- relative viability (Selisistat + Bortezomib; first compound 12.65 µM): 1.11
- relative viability (Selisistat + Bortezomib; first compound 40 µM): 1.08
- relative viability (Selisistat + Vorinostat; first compound 0.4 µM): 1.07
- relative viability (Selisistat + Vorinostat; first compound 1.265 µM): 0.98
- relative viability (Selisistat + Vorinostat; first compound 4 µM): 0.85
- relative viability (Selisistat + Vorinostat; first compound 12.65 µM): 1
- relative viability (Selisistat + Vorinostat; first compound 40 µM): 0.995
- relative viability (Serdemetan + Phenformin; first compound 0.04 µM): 0.435
- relative viability (Serdemetan + Phenformin; first compound 0.1265 µM): 0.451
- relative viability (Serdemetan + Phenformin; first compound 0.4 µM): 0.432
- relative viability (Serdemetan + Phenformin; first compound 1.265 µM): 0.353
- relative viability (Serdemetan + Phenformin; first compound 4 µM): 0.432
- relative viability (Serdemetan + AZD7762; first compound 0.04 µM): 0.624
- relative viability (Serdemetan + AZD7762; first compound 0.1265 µM): 0.502
- relative viability (Serdemetan + AZD7762; first compound 0.4 µM): 0.846
- relative viability (Serdemetan + AZD7762; first compound 1.265 µM): 0.378
- relative viability (Serdemetan + AZD7762; first compound 4 µM): 0.422

Cell Line: NCI-H2126
- relative viability (Selisistat + Bortezomib; first compound 0.4 µM): 1.2
- relative viability (Selisistat + Bortezomib; first compound 1.265 µM): 1.15
- relative viability (Selisistat + Bortezomib; first compound 4 µM): 1.12
- relative viability (Selisistat + Bortezomib; first compound 12.65 µM): 1.12
- relative viability (Selisistat + Bortezomib; first compound 40 µM): 1.17
- relative viability (Selisistat + Vorinostat; first compound 0.4 µM): 0.865
- relative viability (Selisistat + Vorinostat; first compound 1.265 µM): 0.792
- relative viability (Selisistat + Vorinostat; first compound 4 µM): 0.691
- relative viability (Selisistat + Vorinostat; first compound 12.65 µM): 0.861
- relative viability (Selisistat + Vorinostat; first compound 40 µM): 0.845
- relative viability (Serdemetan + Phenformin; first compound 0.04 µM): 0.555
- relative viability (Serdemetan + Phenformin; first compound 0.1265 µM): 0.557
- relative viability (Serdemetan + Phenformin; first compound 0.4 µM): 0.535
- relative viability (Serdemetan + Phenformin; first compound 1.265 µM): 0.512
- relative viability (Serdemetan + Phenformin; first compound 4 µM): 0.527
- relative viability (Serdemetan + AZD7762; first compound 0.04 µM): 0.924
- relative viability (Serdemetan + AZD7762; first compound 0.1265 µM): 1.04
- relative viability (Serdemetan + AZD7762; first compound 0.4 µM): 0.923
- relative viability (Serdemetan + AZD7762; first compound 1.265 µM): 0.932
- relative viability (Serdemetan + AZD7762; first compound 4 µM): 1.04

Cell Line: HOP-62
- relative viability (Selisistat + Bortezomib; first compound 0.4 µM): 0.837
- relative viability (Selisistat + Bortezomib; first compound 1.265 µM): 1.08
- relative viability (Selisistat + Bortezomib; first compound 4 µM): 0.867
- relative viability (Selisistat + Bortezomib; first compound 12.65 µM): 0.624
- relative viability (Selisistat + Bortezomib; first compound 40 µM): 0.883
- relative viability (Selisistat + Vorinostat; first compound 0.4 µM): 0.604
- relative viability (Selisistat + Vorinostat; first compound 1.265 µM): 0.783
- relative viability (Selisistat + Vorinostat; first compound 4 µM): 0.735
- relative viability (Selisistat + Vorinostat; first compound 12.65 µM): 0.613
- relative viability (Selisistat + Vorinostat; first compound 40 µM): 0.923
- relative viability (Serdemetan + Phenformin; first compound 0.04 µM): 0.718
- relative viability (Serdemetan + Phenformin; first compound 0.1265 µM): 0.63
- relative viability (Serdemetan + Phenformin; first compound 0.4 µM): 0.721
- relative viability (Serdemetan + Phenformin; first compound 1.265 µM): 0.548
- relative viability (Serdemetan + Phenformin; first compound 4 µM): 0.583
- relative viability (Serdemetan + AZD7762; first compound 0.04 µM): 0.762
- relative viability (Serdemetan + AZD7762; first compound 0.1265 µM): 0.544
- relative viability (Serdemetan + AZD7762; first compound 0.4 µM): 0.731
- relative viability (Serdemetan + AZD7762; first compound 1.265 µM): 0.519
- relative viability (Serdemetan + AZD7762; first compound 4 µM): 0.49

Cell Line: CAL-12T
- relative viability (Selisistat + Bortezomib; first compound 0.4 µM): 0.992
- relative viability (Selisistat + Bortezomib; first compound 1.265 µM): 1.12
- relative viability (Selisistat + Bortezomib; first compound 12.65 µM): 0.768
- relative viability (Selisistat + Bortezomib; first compound 40 µM): 0.983
- relative viability (Selisistat + Vorinostat; first compound 0.4 µM): 0.66
- relative viability (Selisistat + Vorinostat; first compound 1.265 µM): 0.727
- relative viability (Selisistat + Vorinostat; first compound 4 µM): 1.05
- relative viability (Selisistat + Vorinostat; first compound 12.65 µM): 0.766
- relative viability (Selisistat + Vorinostat; first compound 40 µM): 0.768
- relative viability (Serdemetan + Phenformin; first compound 0.04 µM): 0.508
- relative viability (Serdemetan + Phenformin; first compound 0.1265 µM): 0.632
- relative viability (Serdemetan + Phenformin; first compound 0.4 µM): 0.502
- relative viability (Serdemetan + Phenformin; first compound 1.265 µM): 0.562
- relative viability (Serdemetan + Phenformin; first compound 4 µM): 0.561
- relative viability (Serdemetan + AZD7762; first compound 0.04 µM): 0.557
- relative viability (Serdemetan + AZD7762; first compound 0.1265 µM): 0.609
- relative viability (Serdemetan + AZD7762; first compound 0.4 µM): 0.555
- relative viability (Serdemetan + AZD7762; first compound 1.265 µM): 0.547
- relative viability (Serdemetan + AZD7762; first compound 4 µM): 0.599
